Like-named read-outs stand apart in the source and are kept apart here.
Assays:
[1] = cited from earlier work
[2] = cited from earlier work; remark: listed apart in the source
[3] = cited from earlier work; remark: listed apart in the source
[4] = molecular target: T1, human Bradykinin B1 receptor (Homo sapiens, UniProt P46663); test: Calcium flux Assay (FLIPR) with recombinant CHO-K1 cells expressing human Bradykinin B1 receptor, in presence (hB1 IC50) or absence (hB1 free IC50) of 0.1% BSA; type: cell-based
T1 construct: host or cells: CHO-K1
T1 sequence (P46663 1-353): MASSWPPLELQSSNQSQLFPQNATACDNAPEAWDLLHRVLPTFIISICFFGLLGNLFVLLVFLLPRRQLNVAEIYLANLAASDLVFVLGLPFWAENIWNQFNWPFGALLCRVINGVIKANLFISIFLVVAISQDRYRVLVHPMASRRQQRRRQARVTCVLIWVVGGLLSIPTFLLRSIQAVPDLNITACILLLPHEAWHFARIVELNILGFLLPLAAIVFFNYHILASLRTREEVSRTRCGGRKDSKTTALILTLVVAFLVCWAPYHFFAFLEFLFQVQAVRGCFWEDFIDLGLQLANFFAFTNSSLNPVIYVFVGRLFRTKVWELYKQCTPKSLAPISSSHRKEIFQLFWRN

[5] = molecular target: T2, native human Bradykinin B1 receptor (Homo sapiens, UniProt P46663); test: Calcium flux Assay (FLIPR) with human fibroblasts expressing Bradykinin B1 receptor (hB1 IMR-90); type: cell-based; details: IMR-90 human fibroblasts expressing native Bradykinin B1 receptor
T2 construct: which express native human Bradykinin B1 receptor after induction with human IL-10; Coriell Institute; host or cells: IMR-90 human foetal lung fibroblasts, cytokine-induced
T2 sequence (P46663 1-353): T1 sequence (P46663 1-353)
Method in brief: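 IMR-90 human foetal lung fibroblasts induced with 0.35 ng/mL […] for 3 h, Fluo-4/AM-loaded, preincubated with compound (8 concentrations, triplicate) for 30 min at 28 °C, then challenged with Lys-(Des-Arg)-bradykinin at EC90. Ca2+ fluorescence was read at 538 nm; full inhibition set by 20 µM Lys-(Des-Arg-Leu)-bradykinin; IC50 derived.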

[6] = tested on: IL-6 secretion; test: Inhibitory activity on Bradykinin B1 agonist-induced secretion of IL-6 in human IMR-90 cells; type: cell-based; details: 30 min compound, stimulated with 0.1 μM Lys-[Des-Arg9]Bradykinin and 0.1 μM Sar-[D-Phe8]-des-Arg9-Bradykinin for 5 hours
From the text: (§1) Inhibitory activity on Bradykinin B1 agonist-induced secretion of IL-6 and IL-8 in human IMR-90 cells
(§2) The effect of the compound examples on secretion of the cytokine IL-6 and IL-8 has been investigated in the human foetal lung fibroblast IMR-90 cell line. Here the induction of the cytokine secretion was induced by the Bradykinin B1 agonists Lys-[Des-Arg9]Bradykinin (CAS 71800-36-7, Tocris Bioscience) and Sar-[D-Phe8]-des-Arg9-Bradykinin (CAS 126959-88-4, Tocris Bioscience) leading to the activation of the Bradykinin B1-driven signalling pathway. This effect is indicative for a strong anti-inflammatory mode of action in kinin driven inflammation.
(§3) IMR-90 cells were cultured in Eagle's Minimum Essential Medium (EMEM) containing 2 mM L-glutamine, 1 g/L glucose, 1.5 g/L NaHCO3, 1 mM sodium pyruvate and non-essential amino acids (ATCC, 30-2003™) supplemented with 10% FBS (Biochrom, S0615) and 50 U/mL Penicillin, 50 μg/mL Streptomycin (PAA, P11-010). The assay was performed in EMEM and a cell density of […] IMR-90 cells/96-well. The compound examples have been serial diluted in 100% DMSO and evaluated at 8 different concentrations within the range of 3 nM and 10 μM and a final DMSO concentration of 0.4%. The IMR-90 cells have been incubated with the respective concentration of the compound for 30 min. The enhanced secretion of IL-6 and IL-8 was induced by the stimulation of these cells with 0.1 μM Lys-[Des-Arg9]Bradykinin (Tocris, catalogue no. 3225) and 0.1 μM Sar-[D-Phe8]-des-Arg9-Bradykinin (Tocris, catalogue no. 3230) for 5 hours at 37° C. and 5% C02. Further, cells have been treated with Lys-[Des-Arg9]Bradykinin and Sar-[D-Phe8]-des-Arg9-Bradykinin as neutral control and with 0.1% DMSO as inhibitor control. The amount of IL-6 and IL-8 in the supernatant was determined using the Human Prolnflammatory Panel II (4-Plex) (MSD, K15025B) according to manufacturer's instruction. Briefly, supernatants were added onto assay plates and incubated at room temperature for 1-2 h with vigorous shaking at 600 rpm. Detection antibodies were then added onto the supernatants and incubated at room temperature for an additional 1-2 h with vigorous shaking at 600 rpm. Plates were washed three times with phosphate-buffered saline (PBS; 137 mM NaCl, 2.7 mM KCl, 6.5 mM Na2HPO4, 1.7 mM KH2P04) containing 0.05% Tween-20 (Bio-Rad, 161-0781) and electrochemiluminescence detected using the MSD Sector Imager 6000 plate reader. The cell viability was measured using the CellTiter-Glo Luminescent Assay (Promega, G7571) following the manufacturers protocol. Briefly, the CellTiter-Glo Reagent was diluted with PBS (1:1) and added directly to cells. After incubation and shaking for 10 minutes luminescent signal was measured which is proportional to the amount of ATP present.
(§4) The effect of the compound on the amount of secreted cytokine has been calculated as 100/(measured cytokine concentration of neutral control-measured cytokine concentration of inhibitor control)*(measured cytokine concentration of compound dose-measured cytokine concentration of inhibitor control). IC50 values are determined using 4-parameter-fit.
(§5) The compound examples were tested in triplicates per plate and the inhibitory activity was determined as the relation between neutral and inhibitor control in percent. IC50 values were calculated using the 4-parameter logistic model.

[7] = tested on: IL-8 secretion; test: Inhibitory activity on Bradykinin B1 agonist-induced secretion of IL-8 in human IMR-90 cells; type: cell-based; details: 30 min compound, stimulated with 0.1 μM Lys-[Des-Arg9]Bradykinin and 0.1 μM Sar-[D-Phe8]-des-Arg9-Bradykinin for 5 hours
From the text: as §1, §2, §3, §4, §5

[8] = due to metabolic tability; cited from earlier work
[9] = in absence of 0.1% BSA, read-out: hB1 free IC50
[10] = in presence of 0.1% BSA, read-out: hB1 IC50

IC50 [4, 9] [nM] | IC50 [4, 10] [nM] | IC50 [5] [nM] | IC50 [6] [nM] | IC50 [7] [nM] | Molecule | also measured
8.98 | 20.4 | 6.03 | – | – | CCc1ccc(-c2ccc(NC(=O)C3(c4cccc(Cl)c4)CC3)cc2-c2nnn[nH]2)cn1 [Example 338, 1-(3-chlorophenyl)-N-[4-(6-ethylpyridin-3-yl)-3-(1H-tetrazol-5-yl)phenyl]cyclopro-panecarboxa-mide] | –
265 | 161 | 108 | – | – | CC(C)(O)c1ccc(-c2ccc(NC(=O)C3(c4cccc(Cl)c4)CC3)cc2-c2nnn[nH]2)cn1 [Example 340, 1-(3-chlorophenyl)-N-{4-[6-(2-hydroxypropan-2-yl)pyridin-3-yl]-3-(1H-tetrazol-5-yl)phenyl}cyclopro-panecarboxa-mide] | –
259 | 113 | 110 | – | – | CC(C)(O)Cc1ccc(-c2ccc(NC(=O)C3(c4cccc(Cl)c4)CC3)cc2-c2nnn[nH]2)cn1 [Example 343, 1-(3-Chlorophenyl)-N-{4-[6-(2-hydroxy-2-methylpropyl)pyridin-3-yl]-3-(1H-tetrazol-5-yl)phenyl}cyctopropanecarboxamide] | –
30.8 | – | – | > 10000 | 345 | CC(C)(C)c1ccn(-c2ccc(NC(=O)C3(c4ccc(C(F)(F)F)cc4F)CC3)cc2-c2nnn[nH]2)n1 [Example 380, N-[4-(3-tert-Butyl-1H-pyrazol-1-yl)-3-(1H-tetrazol-5-yl)phenyl]-1-[2-fluoro-4-(trifluoromethyl)phenyl]cyclopro-panecarboxamide] | –
6.36 | – | – | 69 | 59 | CC(C)(C)c1cn(-c2ccc(NC(=O)C3(c4ccc(OC(F)(F)F)cc4F)CC3)cc2-c2nnn[nH]2)cn1 [Example 404, N-[4-(4-tert-butyl-1H-imidazol-1-yl)-3-(1H-tetrazol-5-yl)phenyl]-1-[2-fluoro-4-(trifluoromethoxy)phenyl]cyclo-propanecarboxa-mide] | –

The remaining lines, values behind:

Molecule | IC50 [4, 9] [nM] | IC50 [4, 10] [nM] | IC50 [5] [nM] | IC50 [6] [nM] | IC50 [7] [nM] | also measured
C[C@@H]1CC[C@H](C)N1C(=O)c1ccc([C@@H](C)NC(=O)C2(NC(=O)c3cc(F)cc(C(F)(F)F)c3)CC2)c(F)c1 | – | – | – | – | – | aqueous solubility [1]: reasonable; pharmacokinetic profile in rat [2]: reasonable; human metabolic stability [3]: poor
O=C(Nc1ccc(-n2ccc(CC(F)(F)F)n2)c(-c2nnn[nH]2)c1)C1(c2ccc(C(F)(F)F)cc2F)CC1 [Example 389, 1-[2-fluoro-4-(trifluoromethyl)phenyl]-N-{3-(1H-tetrazol-5-yl)-4-[3-(2,2,2-trifluoroethyl)-1H-pyrazol-1-yl]phenyl}cyclo-propanecarboxa-mide] | 11 | – | – | 253 | 258 | –
C[C@@H](NC(=O)C1(NC(=O)C(F)(F)F)CC1)c1ccc(-c2cccc(Cl)c2C(=O)O)cc1F [MK-0686] | – | – | – | – | – | pharmacokinetic profile [8]: suboptimal
N-[4-(6- ethoxypyridin-3- yl)-3-(1H- tetrazol-5- yl)phenyl]-1-(4- ethylphenyl) cyclopropane- carboxamide [Example 69] | 6.75 | 30.9 | 16.2 | – | – | –
